Reference: patent publication US20230365590A1, “BIPHENYL COMPOUND AS IMMUNOMODULATOR, PREPARATION METHOD THEREFOR AND APPLICATION THEREOF” (SHENZHEN CHIPSCREEN BIOSCIENCES CO., LTD., priority 2020, published 2023)

How the values were obtained:
[1] = Repeated-dosing pharmacokinetics test; format: in vivo, B-hPD-1/hPD-L1 humanized female mice; settings: female, B-hPD-1/hPD-L1 (humanized), mouse, po; humanized mice, 50 mg/kg by gavage once a day for 12 days, plasma on day 12
Method: 24 6-week old B-hPD-1/hPD-L1 humanized female mice (purchased from Biocytogen (Jiangsu) Gene Biotechnology Co., Ltd.) were taken and the test compound was dissolved in a solvent containing 5% DMSO, 60% PEG400 and 35% purified water. The compound I-6 and three control molecules, Example 17, Compound 14 (INCB086550) and the aforementioned Example 180 were dosed. The compound was administered by gavage once a day in a dose of 50 mg/kg for 12 consecutive days, and blood was alternately collected through fundus vein plexus on day 12 of administration. The time points for blood collection were 15 min, 30 min, 1 h, 2 h, 4 h, 8 h, 24 h, 32 h and 48 h. About 0.1 mL of blood was collected and centrifuged in a centrifuge tube (heparin sodium for anticoagulation) at 5000 rpm for 5 min to separate plasma, and then frozen at −20° C. for testing. The concentration of the compound in the plasma was determined by liquid chromatography-mass spectrometry (LC-MS/MS). The pharmacokinetic parameters were calculated using Phoenix WinNonlin 7.0 based on the average blood concentration data at different time points.

[2] = system: PD-1/PD-L1 mediated inhibitory signal to T cell activation (CHO-PD-L1-CD3L cells and Jurkat-PD-1-NFAT cells); assay: Blocking of PD-1/PD-L1 mediated inhibitory signal to T cell activation at cell level (NFAT luciferase reporter, co-culture); format: cell-based; settings: Homo sapiens, CHO-PD-L1-CD3L / Jurkat-PD-1-NFAT co-culture, 6 h
Method: In order to test the effect of interaction between PD-1 and PD-L1 on T cell activation signal in immune response, CHO-PD-L1-CD3L cells stably expressing human PD-L1 molecule and anti-CD3 single-chain antibody (ScFv) and Jurkat-PD-1-NFAT cells stably expressing human PD-1 molecule and NFAT reporter gene were constructed. When two kinds of cells are incubated together, anti-CD3 ScFv on the CHO cell surface and membrane CD3 molecule of Jurkat cell combine to transmit an activation signal into Jurkat cell. However, due to the binding of PD-L1 on the CHO cell surface and PD-1 molecule on the Jurkat cell surface at the same time, a signal for inhibiting activation is transmitted inward, so that luciferase reporter gene cannot be expressed. When an immunocheckpoint antibody or small-molecule inhibitor is added, the binding of PD-1 and PD-L1 is blocked, the NFAT pathway activated by CD3 ScFv antibody and CD3 cross-linking mediated T cell activation signal is no longer affected by the inhibitory signal, and the downstream luciferase reporter gene starts to be expressed. Chemiluminescence signals proportional to reporter gene activation can be detected by adding a catalytic substrate.
CHO-PD-L1-CD3L cells expressing human PD-L1 molecule and anti-CD3 single-chain antibody (ScFv) and Jurkat-PD-1-NFAT cells stably expressing human PD-1 molecule and NFAT reporter gene were all independently constructed and presented by Dr. Chen Bo (KeyMed Biosciences (Chengdu) Co., Ltd. Puromycin (Cat # 540411) and Hygromycin B (Cat # V900372) for stable culture of transfected cells were purchased from Sigma, PMA (Cat # P1585) was purchased from Sigma, and the anti human PD-L1 antibody (Cat # GMP-A066) was purchased from Novoprotein Company. The Luciferase substrate solution (Cat # E6485) and the luciferase-specific cell lysate 5×(Cat # E1531) were purchased from Promega company. The fluorescence detector Tecan (Spark 10M) was purchased from Tecan Company in Switzerland.
Main Process of Experiment • (1) On the day before the experiment, 100 μL of CHO-PD-L1-CD3L cells (about 4×10^4 cells/well) were inoculated at 37° C. overnight in a 96-well cell culture plate, and the culture medium was DMEM/F12 containing 10% FBS, 8 μg/mL Puromycin and 200 μg/mL Hygromycin B. • (2) The test compound was diluted with 0.1% PBST to obtain solutions with different concentration gradients, and then added into 96-well plates and incubated for 30 min in advance. The RPMI 1640 complete medium containing 10% FBS, 8 μg/mL Puromycin and 200 μg/mL Hygromycin B was used to adjust the Jurkat-PD-1-NFAT cell count to 2×10^5 cells/mL, and 100 ng/mL PMA (10 mg/mL storage solution prepared with DMSO) was added to amplify the T cell activation signal. 100 μL of the Jurkat-PD-1-NFAT cells were added into each well of the 96-well plates for co-culture. • (3) During the test reaction, control groups were set, including the solvent control without adding the test compound and the positive control with the addition of the […] in the experimental system. All tests were conducted by use of multiple holes. • (4) Incubation was continued at 37° C. for 6 h, 40 μL of 5×cell lysate was added directly, the solution was mixed well and placed at room temperature for 10 min to completely lyse cells. 50 μL of lysed cell solution was transferred to a fluorescence detection plate, 30 μL of luciferase substrate solution was then added, and the chemiluminescence detection program was immediately selected on the fluorescence detector for determination. • (5) Calculation formula of the inhibition rate of the test compound against T cell activation signal at the cell level: The inhibition rate against T cell activation signal (%)=(original chemiluminescence value of the test hole−solvent control)/(the highest original chemiluminescence value determined in the compound test hole−solvent control)×100%. […]

[3] = Single-dosing pharmacokinetics test; format: in vivo, B-hPD-1/hPD-L1 female mice; settings: female, B-hPD-1/hPD-L1 (humanized), mouse, po; humanized mice, single dose of 100 mg/kg by gavage, plasma
Method: 24 6-week old B-hPD-1/hPD-L1 female mice (purchased from Biocytogen (Jiangsu) Gene Biotechnology Co., Ltd.) were taken and the test compound was dissolved in a solvent containing 5% DMSO, 60% PEG400 and 35% purified water. The compound I-6 and three control molecules, Example 17, Compound 14 (INCB086550) and Example 180 were dosed. The compound was administered by gavage in a single dose of 100 mg/kg and blood was collected through fundus vein plexus after administration. The time points for blood collection were 15 min, 30 min, 1 h, 2 h, 4 h, 8 h, 24 h, 32 h and 48 h. About 0.1 mL of blood was collected and centrifuged in a centrifuge tube (heparin sodium anticoagulation) at 5000 rpm for 5 min to separate plasma, and then frozen at −20° C. for testing. After the plasma sample was treated, the concentration of the compound in the plasma was determined by liquid chromatography-mass spectrometry (LC-MS/MS). The pharmacokinetic parameters were calculated using Phoenix WinNonlin 7.0 based on the average blood concentration data at different time points.

AUC(0-t) [1] [ng·h/mL]	MRT [1] [h]	half-life [1] [h]	AUC(0-t) [3] [ng·h/mL]	MRT [3] [h]	half-life [3] [h]	SMILES	EC50 [2] [µM]
27800	4.2	3.3	45400	4.7	3.5	Cn1c(C(=O)Nc2cccc(-c3cccc(NC(=O)c4nc5c(n4C)CCN(CC46CCC(C(=O)O)(CC4)C6)C5)c3Cl)c2Cl)nc2c1CCN(CCO)C2 [Example 180]	0.108
151000	12	9.4	207000	10.9	9.3	COCC12CCC(CCN3CCc4c(nc(C(=O)Nc5cccc(-c6cccc(NC(=O)c7nc8c(n7C)CCN(CCC79CCC(C(=O)O)(CC7)C9)C8)c6Cl)c5Cl)n4C)C3)(CC1)C2 [Compound I-6, 4-(2-(2-((2,2′-dichloro-3′-(5-(2-(4-(methoxymethyl)bicyclo[2.2.1]heptan-1-yl)ethyl)-1-methyl-4,5,6,7-tetrahydro-1H-imidazo[4,5-c]pyridine-2-carboxamido)-[1, 1′-biphenyl]-3-yl)carbamoyl)-1-methyl-1,4,6,7-tetrahydro-5H-imidazo[4,5-c]pyridin-5-yl)ethyl)bicyclo[2.2.1]heptane-1-carboxylic acid]	0.0158
